Laboratory results taken from patent US9920010B2, “CXCR7 receptor modulators” (IDORSIA PHARMACEUTICALS LTD, priority 2013, dated 2018).

Each molecule was assayed against T1, CXCR7 (Homo sapiens, UniProt P25106) (assay: PathHunter CHO-K1 CXCR7 b-arrestin recruitment assay (CXCR7 agonistic activity)). Conditions: PathHunter CHO-K1 CXCR7 b-arrestin cell line.
T1 construct: host or cells: CHO-K1 (PathHunter CHO-K1 CXCR7 b-arrestin cell line, stably transfected)
T1 sequence (P25106 whole entry): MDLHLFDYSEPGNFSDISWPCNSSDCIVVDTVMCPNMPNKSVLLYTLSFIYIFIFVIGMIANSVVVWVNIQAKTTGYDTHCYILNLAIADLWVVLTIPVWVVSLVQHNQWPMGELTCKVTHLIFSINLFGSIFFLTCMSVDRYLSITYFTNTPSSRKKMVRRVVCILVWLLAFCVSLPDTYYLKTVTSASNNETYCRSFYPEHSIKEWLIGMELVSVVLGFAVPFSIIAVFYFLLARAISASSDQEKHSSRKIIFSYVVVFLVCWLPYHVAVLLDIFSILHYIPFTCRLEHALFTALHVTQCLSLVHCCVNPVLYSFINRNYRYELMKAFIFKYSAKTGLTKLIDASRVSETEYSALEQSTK
T1 sequence (P32121 whole entry partner): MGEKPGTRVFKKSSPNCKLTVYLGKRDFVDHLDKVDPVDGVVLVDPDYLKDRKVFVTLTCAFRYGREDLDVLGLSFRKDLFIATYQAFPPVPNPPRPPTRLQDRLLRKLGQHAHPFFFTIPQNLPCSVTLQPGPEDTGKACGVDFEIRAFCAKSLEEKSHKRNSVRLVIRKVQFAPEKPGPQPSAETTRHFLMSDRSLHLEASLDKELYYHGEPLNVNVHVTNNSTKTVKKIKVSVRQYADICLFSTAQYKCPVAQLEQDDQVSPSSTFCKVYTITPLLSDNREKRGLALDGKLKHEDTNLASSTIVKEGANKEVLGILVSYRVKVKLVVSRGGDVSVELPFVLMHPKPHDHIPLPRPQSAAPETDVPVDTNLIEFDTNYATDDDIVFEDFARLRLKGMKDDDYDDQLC
Type: cell-based
Protocol: The CXCl12 receptor and CXCR7 agonistic activities of the compounds of formula (I) are determined in accordance with the following experimental method.
The assay is using the PathHunter™ CHO-K1 CXCR7 b-arrestin cell line from DiscoverX. The system is based on the Enzyme Fragment Complementation Technology. Two complementing fragments of the b-galactosidase enzyme are expressed within stably transfected cells. The larger portion of b-gal, termed EA for Enzyme Acceptor, is fused to the C-terminus of b-arrestin 2. The smaller fragment, termed ProLink™ tag, is fused to CXCR7 at the C-terminus. Upon activation, b-arrestin is recruited which forces the interaction of ProLink and EA, allowing complementation of the two fragments of b-gal and the formation of a functional enzyme which is capable of hydrolysing the substrate and generating a chemiluminescent signal.
CHO-K1 CXCR7 b-arrestin cells are detached from culture dishes with a cell dissociation buffer (Invitrogen, #13151-014) and collected in growing medium (F12 HAMS 90% (v/v)/FCS 10% (v/v), Penicillin/streptomycin 1% (v/v)). 5000 cells per well (in 20 μl) are seeded in a 384 well plate (white-walled, clear bottom; BD Falcon #353274). The plate is incubated at 37° C./5% CO2 for 24 hours. Medium is then replaced by 20 μl OPTIMEM (Invitrogen #31985) for 3 to 4 hours. Test compounds are dissolved at 10 mM in DMSO and serially diluted in DMSO to 200× of the final concentration for dose response curves. Compounds are then diluted 1:33.3 in HBSS1×. 5 μl/well of HBSS1×/20 mM HEPES/0.2% BSA are added to the assay plate followed by addition of 5 μl/well of diluted compounds. CXCL12 (Peprotech #300-28A) may be used as a reference agonist. The plate is incubated for 90 minutes at 37° C. 12 μl of detection reagent (Path Hunter Detection Kit, DiscoveRx, #93-0001) is transferred to the assay plate and to the plate is incubated for 1 hour at room temperature. Luminescent signal is read in a microplate reader (FLUOstar Optima, bmg). The calculated EC50 values may fluctuate depending on the daily cellular assay performance. Fluctuations of this kind are known to those skilled in the art. Average EC50 values from several measurements are given as geometric mean values.
For `CC1c2cccc(NCC(=O)N(CCN(C)C)Cc3ccccc3C(F)(F)F)c2CCN1CC1CC1` (single isomer, unassigned) [Example 211a, (S)- or (R)-2-((2-(Cyclopropylmethyl)-1-methyl-1,2,3,4-tetrahydroisoquinolin-5-yl)amino)-N-(2-(dimethylamino)ethyl)-N-(2-(trifluoromethyl)benzyl)acetamide], the EC50 was 0.001 µM. Molecule `CC1c2cccc(NCC(=O)N(CCN(C)C)Cc3ccccc3C(F)(F)F)c2CCN1CC1CC1` (single isomer, unassigned) [Example 211b, (R)- or (S)-2-((2-(Cyclopropylmethyl)-1-methyl-1,2,3,4-tetrahydroisoquinolin-5-yl)amino)-N-(2-(dimethylamino)ethyl)-N-(2-(trifluoromethyl)benzyl)acetamide] has an EC50 of 0.006 µM. In the case of `CN(C)CCN(Cc1ccccc1C(F)(F)F)C(=O)CNc1cccc2c1CCN(C(=O)[C@H]1C[C@H]1F)C2` (single isomer, unassigned) [Example 363a, N-(2-Dimethylamino-ethyl)-2-[2-((1R*,2R*)-2-fluoro-cyclopropanecarbonyl)-1,2,3,4-tetrahydro-isoquinolin-5-ylamino]-N-(2-trifluoromethyl-benzyl)-acetamide], the EC50 is reported as 0.006 µM. `CN(C)CCN(Cc1ccccc1C(F)(F)F)C(=O)CNc1cccc2c1CCN(C(=O)[C@@H]1C[C@@H]1F)C2` (single isomer, unassigned) [Example 363b, N-(2-Dimethylamino-ethyl)-2-[2-((1 S*,2S*)-2-fluoro-cyclopropanecarbonyl)-1,2,3,4-tetrahydro-isoquinolin-5-ylamino]-N-(2-trifluoromethyl-benzyl)-acetamide] gave an EC50 of 0.005 µM. With `CN(C)CCN(Cc1ccccc1)C(=O)Cc1cccc2c1CCN(CC1CC1)C2` [Example 1, N-Benzyl-2-(2-cyclopropylmethyl-1,2,3,4-tetrahydro-isoquinolin-5-yl)-N-(2-dimethylamino-ethyl)-acetamide] the EC50 was 0.079 µM. In the case of `CN(C)CCN(CCc1ccccc1)C(=O)Cc1cccc2c1CCN(CC1CC1)C2` [Example 2, 2-(2-Cyclopropylmethyl-1,2,3,4-tetrahydro-isoquinolin-5-yl)-N-(2-dimethylamino-ethyl)-N-phenethyl-acetamide], the EC50 is reported as 0.144 µM. `O=C(Cc1cccc2c1CCN(CC1CC1)C2)N(CCN1CCCC1)Cc1ccccc1` [Example 3, N-Benzyl-2-(2-cyclopropylmethyl-1,2,3,4-tetrahydro-isoquinolin-5-yl)-N-(2-pyrrolidin-1-yl-ethyl)-acetamide] was tested, and the EC50 was 0.042 µM. Molecule `CN(C)CCN(Cc1ncccc1C(F)(F)F)C(=O)Cc1cccc2c1CCN(CC1CC1)C2` [Example 5, 2-(2-Cyclopropylmethyl-1,2,3,4-tetrahydro-isoquinolin-5-yl)-N-(2-dimethylamino-ethyl)-N-(3-trifluoromethyl-pyridin-2-ylmethyl)-acetamide] has an EC50 of 0.187 µM. Work on `CN(C)CCN(Cc1ccccc1C(F)(F)F)C(=O)Cc1cccc2c1CCN(CC1CC1)C2` [Example 6, 2-(2-Cyclopropylmethyl-1,2,3,4-tetrahydro-isoquinolin-5-yl)-N-(2-dimethylamino-ethyl)-N-(2-trifluoromethyl-benzyl)-acetamide] yielded an EC50 of 0.06 µM. `O=C(Cc1cccc2c1CCN(CC1CC1)C2)N(CCN1CCCC1)Cc1ccccc1C(F)(F)F` [Example 7, 2-(2-Cyclopropylmethyl-1,2,3,4-tetrahydro-isoquinolin-5-yl)-N-(2-pyrrolidin-1-yl-ethyl)-N-(2-trifluoromethyl-benzyl)-acetamide] showed an EC50 of 0.032 µM. Work on `CN(C)CCN(Cc1ccccc1)C(=O)CNc1cccc2c1CCN(C(=O)OC(C)(C)C)C2` [Example 8, 5-({[Benzyl-(2-dimethylamino-ethyl)-carbamoyl]-methyl}-amino)-3,4-dihydro-1H-isoquinoline-2-carboxylic acid tert-butyl ester] yielded an EC50 of 0.23 µM. Work on `CC(C)CCN(Cc1ccccc1)C(=O)CNc1cccc2c1CCN(C(=O)OC(C)(C)C)C2` [Example 9, 5-({[Benzyl-(3-methyl-butyl)-carbamoyl]-methyl}-amino)-3,4-dihydro-1H-isoquinoline-2-carboxylic acid tert-butyl ester] yielded an EC50 of 0.451 µM.
